Assay results reported in patent publication US20230042929A1, “Methods of Screening to Determine Effective Dosing of Cancer Therapeutics” (Kiyatec, Inc., priority 2019, published 2023).
Read-outs that look alike come from different tables or passages of the source.

How the values were obtained:
[1] = test system: OVC45 and OVC33 ovarian cancer patient derived 3D spheroids; assay: 3D spheroid drug response assay (CellTiter-Glo 3D, imaging); assay type: cell-based, human
Method: Live OC tissue was received within 24 hours of surgery and dissociated to single cells via mechanical and enzymatic digestion. Cells were then cryopreserved until ready for use. 3D spheroids were generated as previously described. Briefly, cells were seeded in KIYA-PREDICT™ media (KIYATEC, Inc., South Carolina, USA) in 384-well round bottom, ultra-low attachment plates (Corning Inc., New York, USA) and centrifuged at 500×g for five minutes then placed in a 37° C. incubator at 5% CO2.
Given the prevalence of drug resistance and altered drug penetration for 3D cultures, drug concentrations for single dose experiments were in the micromolar or microgram per milliliter range for testing. […] Viability was determined 48 hours later. For durvalumab (Selleckchem, Texas, USA) and olaparib combination studies, spheroids were treated with olaparib for 48 hours, followed by durvalumab for an additional 72 hours. […] T-cells were then added to the bulk cells and seeded for 3D spheroid culture. Viability was determined 48 hours later. Viability read outs were conducted using CellTiter-Glo® 3D Cell Viability Assay (Promega, Wisconsin, USA) and relative luminescence units (RLUs) were recorded using a TECAN infinite M1000pro (Mannedorf, Switzerland).
Statistical analysis was performed using GraphPad Prism software version 8.2.1. Results are expressed as the mean±standard deviation (SD). Unpaired t tests were used to determine significance between two groups. Unpaired One-way ANOVA with multiple comparisons was used to determine significance across three or more groups. Combenefit software generated concentration responses and Loewe synergy indices from calculated percent viability normalized to vehicle control.

[2] = test system: GM-CSF, IFNγ, Granzyme B, MIP-1α, MIP-1β, TNFα secretion; assay: Detection of analyte secretion in microtumor model (Milliplex); assay type: cell-based, human
Method: Detection of Analyte Secretion. Individual beads (GM-CSF, IFNγ, Granzyme B, MIP-1α, MIP-1β, TNFα) were purchased from the Milliplex™ MAP Human CD8+ T cell Magnetic Bead Panel 96-well Plate Assay (EMO Millipore HCD8MAG-15K). Supernatant was collected at day seven of microtumor viability assays and stored at −80° C. Samples were processed according to manufacturer's recommendations and the assay plate was run on the BIORAD Luminex® BioPLEX200™ System (Hercules, Calif.). Analyte concentration was determined by interpolation of assay standards using GraphPad Prism.

[3] = test system: melanoma microtumors co-cultured with stacked T cell compartment; assay: Microtumor viability assay (PrestoBlue growth rate); assay type: cell-based, human
Method: PrestoBlue viability assays. PrestoBlue™ Cell Viability Reagent (Invitrogen A13262) was diluted 1:10 in EV3D media. Each T cell scaffold or microtumor was placed in 250 μl of diluted PrestoBlue reagent in a 96-well plate and allowed to incubate for 2 hours at 37° C. 5% CO2. Scaffolds and microtumors were then placed in fresh media and duplicates of 100 μl per PrestoBlue sample was pipetted into a black walled 96-well plate and read on a TECAN infinite M1000pro (Mannedorf, Switzerland) at an excitation of 560 nm and an emission 590 nm with a gain of 60. Absorbance measurements from scaffolds with no cells were subtracted from each sample and relative fluorescent units (RFU) were graphed using GraphPad Prism.
Microtumor viability assay. T cells and tumor cells were seeded in EV3D media and Matrigel (Corning 356234) with collagen (Corning 354236) in scaffolds. […] Scaffolds were incubated for 1 hour at 37° C. and 5% CO2 then 200 μl of EV3D media was added to each scaffold. After an additional hour, T cell scaffolds were placed on top of tumor cell scaffolds (microtumors) or microtumors were cultured in the absence of a stacked T cell scaffold. Media was changed every one to two days. Supernatant from day seven was collected and stored at −80° C. for analyte analysis. Viability was determined for T cell scaffolds and microtumors after 24 hours (day one) and at day seven using PrestoBlue™ Cell Viability Reagent (Invitrogen A13262). PrestoBlue absorbance readings (RFUs) for day one were subtracted from day seven to determine microtumor growth rates.

GEN26 tumor spheroids = assay: Tumor spheroid death assay (CellTiter-Glo 3D); assay type: cell-based, human; conditions: 24 hours
Method: Tumor spheroid death assay. […] After a 1 hour incubation at 37 C 5% CO2, plates were centrifuged for 5 minutes at 500×g. Tumor spheroids were allowed to form overnight. After 24 or 72 hours, CellTiter-Glo® 3D Cell Viability Assay (Promega G9683) was used according to manufacturer's recommendations and relative luminescence units (RLUs) were recorded using a TEGAN infinite M1000pro (Mannedorf, Switzerland). RLUs were graphed using GraphPad Prism.

[4] = test system: T cells stimulated with matched melanoma tumor spheroids; assay: Tumor spheroid assay to assess T cell responses (flow cytometry); assay type: cell-based, human
Method: Tumor spheroid assay to assess T cell responses. Expanded T cells were cultured in the absence of activation components (EV3D media) for 72 hours prior to tumor spheroid assay. […] After a 1 hour incubation, plates were centrifuged for 5 minutes at 500×g. Patient samples were then cultured for 24 hours, and wells were then harvested for flow cytometric analysis.
Flow cytometry. Cells were harvested from 384-well plates following tumor spheroid assays or dissociated from scaffolds and resuspended in 100 μl FACS buffer (2% FBS, 2 mM EDTA, 0.05% sodium azide in PBS). […] Samples were then analyzed using the CytoFLEX LX flow cytometer and software (Beckman Coulter, Brea, Calif.). Percent of parent was then graphed and evaluated for statistics using GraphPad Prism.

[5] = test system: CD3+ T cells infiltrating matched melanoma microtumors; assay: Detection of T cell infiltration in microtumor model; assay type: cell-based, human
Method: Detection of T cell infiltration. T cells were stained with the fluorescent stain PKH (Sigma PKH26GL-1KT) according to manufacturer's recommendations. On the same day, T cells and tumor cells were seeded in EV3D media and Matrigel (Corning 356234) in scaffolds. Scaffolds were incubated for 1 hour at 37° C. and 5% CO2 then 200 μl of EV3D media was added to each scaffold well. After an additional hour, T cell scaffolds were placed on top of tumor cell scaffolds (microtumors). Media was changed every one or two days. Viability was determined for T cell scaffolds and microtumors after one week using PrestoBlue™ Cell Viability Reagent (Invitrogen A13262). Microtumors were washed in PBS, then harvested using Liberase DH (Sigma LIBDH− RO) in serum-free media while rotating at 37° C. 5% CO2. Harvested cells were then analyzed for PKH (PE channel), and CD3 using flow cytometry. Unstained T cells were used to define PKH+ gates.

[6] = cited from earlier work; for half-life: in vivo
[7] = test system: recurrent platinum-resistant OC; conditions: patients with recurrent platinum-resistant OC; cited from earlier work
[8] = test system: melanoma cell line with tumor infiltrating lymphocytes; assay: Image based assay of tumor and T-cell interactions in 3D spheroids; conditions: 1:3 E:T, up to 72 hours, drug alone
Method: Referring to FIGS. 25A-H, a summary of an image-based assay for measuring tumor and T-cell interactions for I/O applications is shown. FIG. 25(A) illustrates representative images of a melanoma cell line (Green) and tumor infiltrating lymphocytes (Red) at a 1:3 Effector:Target cell ratio (E:T) cultured as 3D spheroids at 72 hours, Scale bar=200 μm. Groups were treated with immunomodulators (Activator=CD3/CD28 antibody, Durva=Durvalumab) and analyzed every 24 hours for 72 hours (FIGS. 25F-25H). Total red or green fluorescence was measured for T-cells (FIGS. 25B and 25C) and tumor cells (FIG. 25F) using an algorithm developed in Celleste Image Analysis software. Imaging based metrics were compared to conventional methods for assessing cell viability, CellTiter-Glo® (FIGS. 25D and 25G) and flow cytometry (FIGS. 25E and 25H). An increase in T-cell viability in all treatment groups was observed compared to no treatment when cultured with tumor cells (D). Total green fluorescence signal (F) was an acceptable indicator of T-cell induced cytotoxicity when compared to CellTiter-Glo® (FIG. 25G). The use of flow cytometry as a metric for T-cell induced cytotoxicity appears to not be as sensitive at earlier timepoints (24 hrs) as at later timepoints (72 hours). […] Two-Way ANOVA, error bars reflect SD. *p<0.05, **p<0.01, ***p<0.001.

Compound: O=C(c1cc(Cc2n[nH]c(=O)c3ccccc23)ccc1F)N1CCN(C(=O)C2CC2)CC1 [olaparib]
- spheroid appearance ([1]; OVC33, 48 hours, images): less dense with less cell contact
- spheroid viability, relative sensitivity of samples ([1]; olaparib alone, 50 μM (OVC33) or 100 μM (OVC45), 48 hours): OVC33 was more sensitive to olaparib alone compared to OVC45
- spheroid viability, relative sensitivity of samples ([1]; single agent olaparib dose-response, sequential dosing study): OVC33 remained more sensitive to single agent olaparib than OVC45

Compound: pembrolizumab
- spheroid viability ([1]; OVC33, T-cells incubated with 300 μg/mL pembrolizumab before 3D incorporation, 48 hours): significant reduction in spheroid viability
- spheroid viability ([1]; OVC45 and OVC33, 100 μg/mL pembrolizumab alone, 48 hours): decrease in spheroid viability with pembrolizumab treatment alone was not detected for both samples
- granzyme B secretion ([2]; GEN19, day 7, 100 μg/ml): greatest increase
- analyte secretion ([2]; GEN19 and GEN26, day 7, 100 μg/ml, vs no treatment): increase in nearly all analytes tested
- analyte secretion ([2]; GEN20, day 7, 100 μg/ml): reduction of all tested analytes
- analyte secretion ([2]; GEN21, day 7, 100 μg/ml): increase in GM-CSF and moderate or no change for other tested analytes
- microtumor growth rate ([3]; GEN19 and GEN26, 100 μg/ml, day 1 to day 7, vs untreated): reduced microtumor growth rates compared to untreated
- microtumor growth rate ([3]; GEN20 or GEN21, 100 μg/ml, day 1 to day 7, vs no treatment): did not detect a difference in microtumor growth rates
- overall microtumor viability ([3]; GEN26, 100 μg/ml, vs untreated microtumors): reduction in overall microtumor viability
- PrestoBlue RFU readings ([3]; day one to day seven, GEN19, GEN26, GEN20, GEN21): altered the RFU readings over the 7 day period for GEN19 and GEN26 more significantly than GEN20 and GEN21
- tumor spheroid viability (GEN26 tumor spheroids; GEN26 tumor spheroids alone, 100 μg/ml, vs no treatment): slight decrease in viability
- tumor spheroid viability (GEN26 tumor spheroids; GEN26 tumor spheroids co-cultured with T cells, ratio 1:5, 100 μg/ml): greatest reduction in tumor spheroid viability
- CD3+/PD-1−/CD69+ population (T cell activation) ([4]; GEN25, data not shown): did not display an increase
- CD3+/PD-1−/CD69+ levels (T cell activation) ([4]; three patients (GEN19, GEN21, GEN26), tumor spheroids + 100 μg/ml pembrolizumab vs T cells with or without spheroids): significant increase
- infiltration of CD3+ T cells ([5]; GEN19 and GEN20, with vs without treatment): decrease was observed
- infiltration of CD3+ T cells ([5]; GEN21 and GEN26, with vs without treatment): increase in infiltration of CD3+ T cells
- half-life [6]: approximately 27 days
- predicted maximum serum concentration ([6]; intravenous 10 mg/kg once every two weeks, advanced solid tumor cancer patients): approximately 200 μg/mL

Compound: NC(=O)c1cccc2cn(-c3ccc([C@@H]4CCCNC4)cc3)nc12 [niraparib]
- complete or partial responses, share of patients [7]: < 5%

Compound: durvalumab
- spheroid viability ([1]; durvalumab alone, dose-response, OVC45 and OVC33): did not result in a dose-dependent reduction in spheroid viability
- T-cell induced cytotoxicity [8]: did not cause significant T-cell induced cytotoxicity
- half-life ([6]; human): high
- predicted achievable serum concentration levels ([6]; twice weekly intravenous dosing regimen): greater than 10 μg/mL
